Results from patent US20220117938A1, “COMBINATON THERAPY WITH A DON PRODRUG AND AN IMMUNE CHECKPOINT INHIBITOR” (DRACEN PHARMACEUTICALS, INC., priority 2019, published 2022).

Test system: Ninety four (94) cell lines and PBMC
Test: Cell viability assay, SRB staining, 94 cell lines and PBMC (Example 7, Experiment 2)
Format: cell-based
Description: Ninety four (94) cell lines were seeded at a density varying from 500 to 7000 cells/well depending on their growth characteristics. PBMC were seeded at the density 50,000-100,000 cells/well. Cells were incubated for 48 h prior to compound treatment. Compound 1 and DON were evaluated at a concertation range of 1 nM up to 100 μM. Compound 1 dilutions in DMSO and DON dilutions in PBS were performed in 96-well 0.5 mL plates (Greiner Bio-One, Germany). Compounds were then diluted 1:100 in RPMI medium. […] of cells were treated by mixing with 10 μL of the compound-containing media (resulting in a final DMSO concentration of 0.1%). The cells were allowed to grow at 37° C. for 120 h. Cells were fixed to the surface by addition of 10% TCA (for adherent growing cells) or 50% TCA (for semi-adherent growing cells or cells growing in suspension). After an hour of incubation at 4° C., plates were washed twice with 400 μL of deionized water and dried. Cells were then stained with 100 μL of 0.04% wt/v SRB. The plates were incubated at room temperature for at least 30 min and washed six times with 1% acetic acid to remove unbound stain. The plates were left to dry at room temperature and bound SRB was solubilized with 100 μL of 10 mM Tris base. Optical density was measured at 492, 520 and 560 nm using a Deelux-LED96 plate reader (Deelux Labortechnik GmbH, Germany).
Cell lines were purchased directly from the ATCC, NCI, CLS, and DSMZ cell line collections. A master bank and working aliquots were prepared. Cells used for the study had undergone less than 20 passages. To rule out potential contamination or wrong assignment, all cell lines were tested by STR analysis. Absence of mycoplasma contamination was confirmed for all cell lines used in the studies.
The cell lines were grown in the media recommended by the suppliers in the presence of 100 U/mL penicillin and 100 μg/mL streptomycin supplied with 10% FCS (PAA, Germany). RPMI 1640, DMEM, and MEM Earle's medium were from PAA (Coelbe, Germany), supplements 2 mM L-glutamine, 1 mM Na-pyruvate and 1% NEAA were from PAA (Coelbe, Germany), 2.5% horse serum, hydrocortisone, transferin, beta-estradiol, selenite and 1 U/mL insulin from Sigma-Aldrich (Munich, Germany). RPMI medium was used for culturing the following cell lines: 5637, 22RV1, 7860, A2780, A431, A549, ACHN, ASPC1, BT20, BXPC3, CAKI1, CLS439, COLO205, COLO678, DLD1, DU145, EFO21, EJ28, HCT15, HS578T, IGROV1, JAR, LOVO, MCF7, MDA MB231, MDA MB435, MDA MB436, MDA MB468, MHHES1, MT3, NCI H292, NCI H358M, NCI H460, NCIH82, OVCAR3, OVCAR4, PANC 1005 (addition of insulin), PBMC, PC3, RDES, SF268, SF295, SKBR3, SK MEL28, SKMEL5, SKOV3, SW620, U2OS, UMUC3, and U031.
DMEM medium was used to culture A204, A375, A673, C33A, CASKI, HCT116, HEPG2, HS729, HT29, J82, MG63, MIAPACA2 (addition of horse serum), PANC1, PLCPRF5, RD, SAOS2, SKLMS1, SKNAS, SNB75, T24, and TE671.
MEM Earle's medium was used for CACO2, CALU6, HEK293, HELA, HT1080, IMR90, JEG3, JIMT1, SKHEP1, SKNSH, and U87MG. Cell seeding conditions were optimized for each cell line. The cell seeding density varied from 500 to 7000 cells/well depending on their growth characteristics. Peripheral blood mononuclear cells (PBMC) were freshly isolated from whole blood of an anonymous donor through density gradient centrifugation using Ficoll solution (d=1.077). In short, blood was diluted 1:1 with PBS and carefully placed on the Ficoll. After centrifugation 1000×g for 15 min (braking rate 0), the ring containing mainly leucocytes was collected in PBS followed by three times washing with PBS to reduce the platelets. PBMC were seeded at the density 50,000-100,000 cells/well. Cells were grown in 5% CO2 atmosphere in a NB-203XXL incubator (N-BIOTEK Inc., Korea).
Ninety-four cell lines were tested in parallel. Cell growth and treatment were performed in 96 well microtitre plates CELLSTAR® (Greiner Bio-One, Germany). […]

[1] = Homo sapiens, MDA-MB-468, MDAMB468, breast
[2] = Homo sapiens, MG-63, MG63, bone
[3] = Homo sapiens, MHH-ES-1, MHHES1, bone
[4] = Homo sapiens, MIA PaCa-2, MIAPACA2, pancreas
[5] = Homo sapiens, MINO, hematological
[6] = Homo sapiens, MV4-11, MV4-11, hematological
[7] = Homo sapiens, NCI-H292, NCIH292, lung
[8] = Homo sapiens, NCI-H460, NCIH460, lung
[9] = Homo sapiens, OVCAR-3, OVCAR3, ovary
[10] = Homo sapiens, OVCAR-4, OVCAR4, ovary
[11] = Homo sapiens, PANC-1, PANC1, pancreas
[12] = Homo sapiens, PLC-PRF-5, PLCPRF5, liver
[13] = Homo sapiens, Panc1005, PANC1005, pancreas
[14] = Homo sapiens, SAOS-2, SAOS2, bone
[15] = Homo sapiens, SF-268, SF268, brain
[16] = Homo sapiens, SF-295, SF295, brain
[17] = Homo sapiens, SK-BR-3, SKBR3, breast
[18] = Homo sapiens, SK-HEP1, SKHEP1, liver
[19] = Homo sapiens, SK-LMS-1, SKLMS1, uterus
[20] = Homo sapiens, SK-MEL-5, SKMEL5, skin
[21] = Homo sapiens, SK-MEL-28, SKMEL28, skin
[22] = Homo sapiens, SK-N-SH, SKNSH, brain
[23] = Homo sapiens, SK-OV-3, SKOV3, ovary
[24] = Homo sapiens, SU-DHL-6, SU-DHL-6, hematological
[25] = Homo sapiens, SW-620, SW620, colon
[26] = Homo sapiens, TE-671, TE671, muscle
[27] = Homo sapiens, THP-1, THP-1, hematological
[28] = Homo sapiens, U-87 MG, U87MG, brain
[29] = Homo sapiens, UMUC3, UMUC3, bladder
[30] = Homo sapiens, UO-31, UO31, kidney
[31] = Homo sapiens, WSU-NHL, hematological

[N-]=[N+]=CC(=O)CC[C@H](N)C(=O)O [DON, 6-Diazo-5-oxo-L-norleucine, reference compound]
IC50 (Homo sapiens, MDA-MB-436, MDAMB436, breast): 19.8 µM | GI50 [1]: 0.427 µM | IC50 [1]: 0.599 µM | GI50 [2]: 4.61 µM | IC50 [2]: 5.3 µM | GI50 [3]: 1.85 µM | IC50 [3]: 2 µM | GI50 [4]: 3.32 µM | IC50 [4]: 3.58 µM | GI50 [5]: 0.497 µM | IC50 [5]: 0.633 µM | GI50 [6]: 1.22 µM | IC50 [6]: 1.4 µM | GI50 [7]: 5.72 µM | IC50 [7]: 53.1 µM | GI50 [8]: 4.11 µM | IC50 [8]: 4.31 µM | GI50 [9]: 0.889 µM | IC50 [9]: 2.3 µM | GI50 [10]: 0.651 µM | IC50 [10]: 0.752 µM | GI50 [11]: 12.3 µM | IC50 [11]: 13.2 µM | GI50 [12]: 6.53 µM | IC50 [12]: 8.04 µM | GI50 [13]: 4.17 µM | IC50 [13]: 8.6 µM | GI50 (Homo sapiens, Ramos, hematological): 0.672 µM | GI50 [14]: 6.36 µM | IC50 [14]: 33.2 µM | GI50 [15]: 6.32 µM | IC50 [15]: 7.43 µM | GI50 [16]: 4.71 µM | IC50 [16]: 5.23 µM | GI50 [17]: 2.14 µM | IC50 [17]: 3.21 µM | GI50 [18]: 1.79 µM | IC50 [18]: 2.62 µM | GI50 [19]: 1.66 µM | IC50 [19]: 2.3 µM | GI50 [20]: 2.19 µM | IC50 [20]: 3.02 µM | GI50 [21]: 1.69 µM | IC50 [21]: 2.19 µM | GI50 (Homo sapiens, SK-N-AS, SKNAS, brain): 12.6 µM | GI50 [22]: 5.04 µM | IC50 [22]: 7.11 µM | GI50 [23]: 0.769 µM | IC50 [23]: 1.21 µM | GI50 (Homo sapiens, SNB-75, SNB75, brain): 15.5 µM | GI50 (Homo sapiens, SU-DHL10, SU-DHL-10, hematological): 8.42 µM | GI50 [24]: 0.623 µM | IC50 [24]: 0.761 µM | GI50 [25]: 5.38 µM | IC50 [25]: 6.25 µM | GI50 [26]: 4.63 µM | IC50 [26]: 5.1 µM | GI50 [27]: 1.02 µM | IC50 [27]: 1.09 µM | GI50 (Homo sapiens, U2OS, bone): 5.91 µM | IC50 (Homo sapiens, U2OS, bone): 8.4 µM | GI50 [28]: 10.5 µM | IC50 [28]: 11.3 µM | GI50 [29]: 2.23 µM | IC50 [29]: 2.76 µM | GI50 [30]: 0.981 µM | IC50 [30]: 18.6 µM | GI50 [31]: 0.796 µM | IC50 [31]: 0.639 µM | IC50 (J82, bladder): 28.9 µM | IC50 (JAR, placenta): 3.04 µM | IC50 (MT3, breast): 0.791 µM | GI50 (NCI-H358M, NCIH358M, lung): 1.61 µM | IC50 (NCI-H358M, NCIH358M, lung): 4.98 µM | GI50 (PBMC, 5637, bladder): 0.796 µM | GI50 (PBMC, CLS439, bladder): 6.87 µM | GI50 (PBMC, HS729, muscle): 7.42 µM | GI50 (PBMC, J82, bladder): 23.2 µM | GI50 (PBMC, JAR, placenta): 2.81 µM | GI50 (PBMC, MT3, breast): 0.638 µM | GI50 (PBMC, PC3, prostate): 8.37 µM | GI50 (PBMC, RD, muscle): 6.79 µM | GI50 (PBMC, T24, bladder): 3.86 µM | IC50 (PC3, prostate): 11.7 µM | IC50 (RD, muscle): 9.13 µM | GI50 (RD-ES, RDES, bone): 1.96 µM | IC50 (RD-ES, RDES, bone): 3.18 µM | IC50 (T24, bladder): 4 µM
